Reference: ChEMBL document CHEMBL4257591 (J Med Chem, 2018)
Converted amounts (≈) assume the structure as drawn. The source made the active and inactive calls. No cut-off for these calls is given here. Starred links: 1 amine or outer side, 2 acyl side, 3 side chain; linkers in the order of their positions; H or OH if unused. Positions of bridges follow the written chain, without caps; N, C: chain ends. Non-standard residues stand in square brackets, D forms with d. Residues, ends and D or L forms follow the SMILES beside them. *: point of attachment. X1 = NC(=O)C[C@@H](C(=O)[*:2])N(c1ccc2c(c1)C(=O)OC21c2ccc(O)cc2Oc2cc(O)ccc21)[*:1]; FITC = O=C1OC2(c3ccc(O)cc3Oc3cc(O)ccc32)c2ccc(NC(=S)*)cc21; Ahx = NCCCCCC(=O)O

Legend:
Staphylococcus aureus [1] = assay: Antimicrobial activity against methicillin-resistant Staphylococcus aureus CCARM 3090 after 18 hrs; type: functional; details: CCARM 3090, 18 h
Escherichia coli [2] = assay: Antimicrobial activity against Escherichia coli KCTC 1682 after 18 hrs; type: functional; details: KCTC 1682, 18 h
Staphylococcus aureus [3] = assay: Antimicrobial activity against methicillin-resistant Staphylococcus aureus CCARM 3089 after 18 hrs; type: functional; details: CCARM 3089, 18 h
Bacillus subtilis = assay: Antimicrobial activity against Bacillus subtilis KCTC 3068 after 18 hrs; type: functional; details: KCTC 3068, 18 h
Staphylococcus aureus [4] = assay: Induction of membrane permeabilization in Staphylococcus aureus KCTC 1621 at 2 to 8 times MIC concentration up to 300 secs by SYTOX green uptake assay; type: functional, organism-based
Salmonella typhimurium = assay: Antimicrobial activity against Salmonella typhimurium KCTC 1926 after 18 hrs; type: functional, Salmonella enterica subsp. enterica serovar Typhimurium; details: Salmonella enterica, KCTC 1926, 18 h
Pseudomonas aeruginosa [5] = assay: Antimicrobial activity against Pseudomonas aeruginosa KCTC 1637 after 18 hrs; type: functional; details: KCTC 1637, 18 h
[6] = test system: Staphylococcus epidermidis; assay: Antimicrobial activity against Staphylococcus epidermidis KCTC 1617 after 18 hrs; type: functional; details: KCTC 1617, 18 h
Staphylococcus aureus [7] = assay: Antimicrobial activity against Staphylococcus aureus KCTC 1621 after 18 hrs; type: functional; details: KCTC 1621, 18 h
Staphylococcus aureus [8] = assay: Induction of cytoplasmic membrane depolarization in Staphylococcus aureus KCTC 1621 at 2 to 8 times MIC concentration by DiSC3(5)-dye based fluorescence spectrophotometry; type: functional, organism-based
Staphylococcus aureus [9] = assay: Antimicrobial activity against methicillin-resistant Staphylococcus aureus CCARM 3095 after 18 hrs; type: functional; details: CCARM 3095, 18 h
Pseudomonas aeruginosa [10] = assay: Antimicrobial activity against multidrug-resistant Pseudomonas aeruginosa CCARM 2095 after 18 hrs; type: functional; details: CCARM 2095, 18 h
Enterococcus faecium = assay: Antimicrobial activity against vancomycin-resistant Enterococcus faecium ATCC 51559 after 18 hrs; type: functional; details: ATCC 51559, 18 h
[11] = Hemolytic activity in sheep RBC assessed as free hemoglobin level up to 256 uM by ELISA relative to control; type: ADME, cell-based, Ovis aries, Erythrocyte; details: sheep red blood cells (erythrocytes), read-out: Activity
DNA = assay: Binding affinity to Escherichia coli pBR322 DNA assessed as inhibition of DNA migration at 32 uM after 1 hr by agarose gel electrophoresis and UV spectroscopy; type: nucleic-acid assay
Escherichia coli [12] = assay: Bactericidal activity against Escherichia coli KCTC 1682 at MIC concentration after 120 to 180 mins by time kill assay; type: functional, organism-based
RAW264.7 = assay: Cytotoxicity against mouse RAW264.7 cells at 512 uM after 48 hrs by MTT assay; type: cell-based; details: raw264.7, 48 h
Escherichia coli [13] = assay: Induction of membrane permeabilization in Escherichia coli KCTC 1682 assessed as PI-positive cells at 25 uM after 1 to 2 hrs by propidium iodide-staining based flow cytometry (reference value: 2.36%); type: functional
Staphylococcus aureus [14] = assay: Bactericidal activity against Staphylococcus aureus KCTC 1621 at MIC concentration after 30 mins by time kill assay; type: functional, organism-based
[15] = Drug uptake in Staphylococcus aureus KCTC 1621 cytoplasm at 30 uM after 20 mins using FITC-labeled compound by confocal laser-scanning microscopy; type: ADME
Staphylococcus aureus [16] = assay: Drug penetration in Staphylococcus aureus KCTC 1621 at MIC concentration after 20 mins using FITC-labelled compounds by confocal laser-scanning microscopy; type: ADME, organism-based; details: in vivo
Staphylococcus aureus [17] = assay: Antimicrobial activity against Staphylococcus aureus KCTC 1621 after 18 hrs using FITC-labelled compound; type: functional
Escherichia coli [18] = assay: Drug penetration in Escherichia coli KCTC 1682 at MIC concentration after 20 mins using FITC-labelled compounds by confocal laser-scanning microscopy; type: ADME, organism-based; details: in vivo
[19] = Drug uptake in Escherichia coli KCTC 1682 cytoplasm at 30 uM after 20 mins using FITC-labeled compound by confocal laser-scanning microscopy; type: ADME
Escherichia coli [20] = assay: Antimicrobial activity against Escherichia coli KCTC 1682 after 18 hrs using FITC-labelled compound; type: functional
Escherichia coli [21] = assay: Induction of membrane permeabilization in Escherichia coli KCTC 1682 assessed as PI-positive cells at 16 uM after 1 to 2 hrs by propidium iodide-staining based flow cytometry (reference value: 2.36%); type: functional

## CC[C@H](C)[C@H](NC(=O)[C@@H](NC(=O)[C@H](Cc1cnc[nH]1)NC(=O)[C@H](CCCNC(=N)N)NC(=O)[C@H](C)NC(=O)[C@H](CCCNC(=N)N)NC(=O)[C@H](CC(C)C)NC(=O)[C@H](CO)NC(=O)[C@H](C)NC(=O)[C@H](CC(C)C)NC(=O)[C@@H](N)CC(N)=O)[C@@H](C)O)C(=O)N1CCC[C@H]1C(=O)N[C@@H](CCC(N)=O)C(=O)N[C@@H](CCCNC(=N)N)C(=O)N[C@@H](CCCCN)C(=O)N[C@@H](Cc1ccccc1)C(=O)NCC(=O)N[C@@H](CCCNC(=N)N)C(=O)N[C@@H](CCCNC(=N)N)C(N)=O (H-NLASLRARHTIPQRKFGRR-NH2)
Staphylococcus aureus [1]
  MIC: 25 µM (≈ 56.9 µg/mL)
Escherichia coli [2]
  MIC: 6.3 µM (≈ 14.3 µg/mL)
Staphylococcus aureus [3]
  MIC: 12.5 µM (≈ 28.5 µg/mL)
Bacillus subtilis
  MIC: 6.3 µM (≈ 14.3 µg/mL)
Staphylococcus aureus [4]
  Activity: inactive
Salmonella typhimurium
  MIC: 6.3 µM (≈ 14.3 µg/mL)
Pseudomonas aeruginosa [5]
  MIC: 6.3 µM (≈ 14.3 µg/mL)
[6]
  MIC: 6.3 µM (≈ 14.3 µg/mL)
Staphylococcus aureus [7]
  MIC: 12.5 µM (≈ 28.5 µg/mL)
Staphylococcus aureus [8]
  Activity: inactive
Staphylococcus aureus [9]
  MIC: 25 µM (≈ 56.9 µg/mL)
Pseudomonas aeruginosa [10]
  MIC: 25 µM (≈ 56.9 µg/mL)
Enterococcus faecium
  MIC: 50 µM (≈ 114 µg/mL)

## CC[C@H](C)[C@H](NC(=O)[C@@H](NC(=O)[C@H](Cc1cnc[nH]1)NC(=O)[C@H](CCCNC(=N)N)NC(=O)[C@H](C)NC(=O)[C@H](CCCNC(=N)N)NC(=O)[C@H](CC(C)C)NC(=O)[C@H](CO)NC(=O)[C@H](C)NC(=O)[C@H](CS)NC(=O)[C@H](CC(C)C)NC(=O)[C@@H](N)CC(N)=O)[C@@H](C)O)C(=O)N1CCC[C@H]1C(=O)N[C@@H](CCC(N)=O)C(=O)N[C@@H](CS)C(=O)N[C@@H](CCCNC(=N)N)C(=O)N[C@@H](CCCCN)C(=O)N[C@@H](Cc1ccccc1)C(=O)NCC(=O)N[C@@H](CCCNC(=N)N)C(=O)N[C@@H](CCCNC(=N)N)C(N)=O (H-NLCASLRARHTIPQCRKFGRR-NH2)
Staphylococcus aureus [1]
  MIC: 25 µM (≈ 62.1 µg/mL)
Escherichia coli [2]
  MIC: 12.5 µM (≈ 31 µg/mL)
Staphylococcus aureus [3]
  MIC: 12.5 µM (≈ 31 µg/mL)
Bacillus subtilis
  MIC: 12.5 µM (≈ 31 µg/mL)
Staphylococcus aureus [4]
  Activity: inactive
Salmonella typhimurium
  MIC: 12.5 µM (≈ 31 µg/mL)
Pseudomonas aeruginosa [5]
  MIC: 12.5 µM (≈ 31 µg/mL)
[6]
  MIC: 12.5 µM (≈ 31 µg/mL)
Staphylococcus aureus [7]
  MIC: 12.5 µM (≈ 31 µg/mL)
Staphylococcus aureus [8]
  Activity: inactive
Staphylococcus aureus [9]
  MIC: 12.5 µM (≈ 31 µg/mL)
Pseudomonas aeruginosa [10]
  MIC: 50 µM (≈ 124 µg/mL)
Enterococcus faecium
  MIC: 25 µM (≈ 62.1 µg/mL)

## CC[C@H](C)[C@@H]1NC(=O)[C@H]([C@@H](C)O)NC(=O)[C@H](Cc2cnc[nH]2)NC(=O)[C@H](CCCNC(=N)N)NC(=O)[C@H](C)NC(=O)[C@H](CCCNC(=N)N)NC(=O)[C@H](CC(C)C)NC(=O)[C@H](CO)NC(=O)[C@H](C)NC(=O)[C@@H](NC(=O)[C@H](CC(C)C)NC(=O)[C@@H](N)CC(N)=O)CSSC[C@@H](C(=O)N[C@@H](CCCNC(=N)N)C(=O)N[C@@H](CCCCN)C(=O)N[C@@H](Cc2ccccc2)C(=O)NCC(=O)N[C@@H](CCCNC(=N)N)C(=O)N[C@@H](CCCNC(=N)N)C(N)=O)NC(=O)[C@H](CCC(N)=O)NC(=O)[C@@H]2CCCN2C1=O (H-NLCASLRARHTIPQCRKFGRR-NH2; disulfide 3-15)
[11]
  hemolysis: < 1%
Staphylococcus aureus [1]
  MIC: 25 µM (≈ 62 µg/mL)
DNA
  Activity: Active
Escherichia coli [2]
  MIC: 12.5 µM (≈ 31 µg/mL)
Staphylococcus aureus [3]
  MIC: 12.5 µM (≈ 31 µg/mL)
Bacillus subtilis
  MIC: 12.5 µM (≈ 31 µg/mL)
Staphylococcus aureus [4]
  Activity: inactive
Salmonella typhimurium
  MIC: 12.5 µM (≈ 31 µg/mL)
Pseudomonas aeruginosa [5]
  MIC: 12.5 µM (≈ 31 µg/mL)
Escherichia coli [12]
  Activity: Active
[6]
  MIC: 12.5 µM (≈ 31 µg/mL)
Staphylococcus aureus [7]
  MIC: 12.5 µM (≈ 31 µg/mL)
RAW264.7
  Activity: Non-Toxic
Staphylococcus aureus [8]
  Activity: inactive
Staphylococcus aureus [9]
  MIC: 12.5 µM (≈ 31 µg/mL)
Pseudomonas aeruginosa [10]
  MIC: 50 µM (≈ 124 µg/mL)
Enterococcus faecium
  MIC: 25 µM (≈ 62 µg/mL)
Escherichia coli [13]
  Activity: 6.39%
Staphylococcus aureus [14]
  Activity: Active

## CC[C@H](C)[C@H](NC(=O)[C@@H](NC(=O)[C@H](Cc1cnc[nH]1)NC(=O)[C@H](CCCNC(=N)N)NC(=O)[C@H](C)NC(=O)[C@H](CCCNC(=N)N)NC(=O)[C@H](CC(C)C)NC(=O)[C@H](CO)NC(=O)[C@H](C)NC(=O)[C@H](CO)NC(=O)[C@H](CC(C)C)NC(=O)[C@H](CC(N)=O)Nc1ccc2c(c1)C(=O)OC21c2ccc(O)cc2Oc2cc(O)ccc21)[C@@H](C)O)C(=O)N1CCC[C@H]1C(=O)N[C@@H](CCC(N)=O)C(=O)N[C@@H](CO)C(=O)N[C@@H](CCCNC(=N)N)C(=O)N[C@@H](CCCCN)C(=O)N[C@@H](Cc1ccccc1)C(=O)NCC(=O)N[C@@H](CCCNC(=N)N)C(=O)N[C@@H](CCCNC(=N)N)C(N)=O (H-[X1]LSASLRARHTIPQSRKFGRR-NH2)
[15]
  Drug uptake: Active
Staphylococcus aureus [16]
  Drug uptake: Active
Staphylococcus aureus [17]
  Activity: Active
Escherichia coli [18]
  Drug uptake: Active
[19]
  Drug uptake: Active
Escherichia coli [20]
  Activity: Active

## CC[C@H](C)[C@@H]1NC(=O)[C@H]([C@@H](C)O)NC(=O)[C@H](Cc2cnc[nH]2)NC(=O)[C@H](CCCNC(=N)N)NC(=O)[C@H](C)NC(=O)[C@H](CCCNC(=N)N)NC(=O)[C@H](CC(C)C)NC(=O)[C@H](CO)NC(=O)[C@H](C)NC(=O)[C@@H](NC(=O)[C@H](CC(C)C)NC(=O)[C@H](CC(N)=O)NC(=O)CCCCCNC(=S)Nc2ccc3c(c2)C(=O)OC32c3ccc(O)cc3Oc3cc(O)ccc32)CSSC[C@@H](C(=O)N[C@@H](CCCNC(=N)N)C(=O)N[C@@H](CCCCN)C(=O)N[C@@H](Cc2ccccc2)C(=O)NCC(=O)N[C@@H](CCCNC(=N)N)C(=O)N[C@@H](CCCNC(=N)N)C(N)=O)NC(=O)[C@H](CCC(N)=O)NC(=O)[C@@H]2CCCN2C1=O ({FITC-Ahx}-NLCASLRARHTIPQCRKFGRR-NH2; disulfide 3-15)
[15]
  Drug uptake: Active
Staphylococcus aureus [17]; KCTC 1621, 18 h
  MIC: 12.5 µM (≈ 37.3 µg/mL)
[19]
  Drug uptake: Active
Escherichia coli [20]; KCTC 1682, 18 h
  MIC: 12.5 µM (≈ 37.3 µg/mL)

## CC[C@H](C)[C@H](NC(=O)[C@H](CCCCN)NC(=O)[C@H](CCC(=O)O)NC(=O)[C@H](CCCCN)NC(=O)[C@H](CO)NC(=O)[C@H](CCCCN)NC(=O)[C@H](CCCNC(=N)N)NC(=O)[C@H](Cc1ccccc1)NC(=O)[C@H](Cc1ccccc1)NC(=O)[C@H](CC(=O)O)NC(=O)CNC(=O)[C@H](CC(C)C)NC(=O)[C@@H](N)CC(C)C)C(=O)NCC(=O)N[C@@H](CCCCN)C(=O)N[C@@H](CCC(=O)O)C(=O)N[C@@H](Cc1ccccc1)C(=O)N[C@@H](CCCCN)C(=O)N[C@@H](CCCNC(=N)N)C(=O)N[C@H](C(=O)N[C@H](C(=O)N[C@@H](CCC(N)=O)C(=O)N[C@@H](CCCNC(=N)N)C(=O)N[C@H](C(=O)N[C@@H](CCCCN)C(=O)N[C@@H](CC(=O)O)C(=O)N[C@@H](Cc1ccccc1)C(=O)N[C@@H](CC(C)C)C(=O)N[C@@H](CCCNC(=N)N)C(=O)N[C@@H](CC(N)=O)C(=O)N[C@@H](CC(C)C)C(=O)N[C@H](C(=O)N1CCC[C@H]1C(=O)N[C@@H](CCCNC(=N)N)C(=O)N[C@H](C(=O)N[C@@H](CCC(=O)O)C(=O)N[C@@H](CO)C(=O)O)[C@@H](C)O)C(C)C)[C@@H](C)CC)C(C)C)[C@@H](C)CC [CATHELICIDIN]
Escherichia coli [21]
  Activity: 75.38%
